Values quoted from earlier work in US11400105B2, “Anti-inflammatory properties of marine lipid compositions” (AKER BIOMARINE ANTARCTIC AS, priority 2006, dated 2022).

Assays:
pre-term infants = conditions: for absorption: ref [8]
[1] = ethyl esters (4 g/d); ref [12]

Row | SMILES | absorption (pre-term infants) [%] | relative absorption based on the area under the concentration curve [1] [%] | relative absorption compared to oleic acid calculated from peak concentrations [1] [%] | absorption of DHA from egg lecithin (pre-term infants; ref [7]) [%] | absorption of DHA from triglycerides (pre-term infants; ref [7]) [%]
1 | CCCCCC=CCC=CCC=CCC=CCCCC(=O)O [AA, 5,8,11,14-eicosatetraenoic acid] | 75 |  |  |  | 
2 | CC/C=C\C/C=C\C/C=C\C/C=C\C/C=C\C/C=C\CCC(=O)O [DHA, 4,7,10,13,16,19-docosahexanoic acid] | 62 | 93 | 100 | 90 | 80
3 | CCC=CCC=CCC=CCC=CCC=CCCCC(=O)O [EPA, 5,8,11,14,17-eicosapentaenoic acid] |  | 91 | 94 |  | 
